Here are results for 1 molecule from patent US12351836B2, “Microhomology mediated repair of microduplication gene mutations” (UNIVERSITY OF MASSACHUSETTS, priority 2018, dated 2025).

In the assay the target is PARP-1 (Homo sapiens, UniProt P09874). The experiment in a line: PARP-1 inhibition by rucaparib: MMEJ-based repair at the HPS1 locus in HPS1 B-LCL cells treated with SpyCas9 RNP. Type of assay: cell-based. The source says:
To investigate whether nuclease-mediated collapse of a microduplication occurs via the MMEJ pathway, a DNA repair factor (PARP-1) that regulates DSB flux through this pathway was inhibited. PARP-1 influences the repair of a DSB through resection-dependent DNA repair pathways, such as MMEJ^3,16, which are in competition with the non-homologous end joining pathway (NHEJ) for DSB repair^17. Inhibition of the catalytic activity of PARP-1 by rucaparib reduces DSB flux through the MMEJ pathway, resulting in a decrease in microhomology-based deletion products in the resulting repair events^18. See, FIG. 18A. Patient-derived HPS1 B-LCL cells were treated with 10 µM or 20 μM rucaparib before and after treatment with SpyCas9 RNP to suppress MMEJ-mediated repair of DSBs. See, FIG. 12A. […] See, FIG. 12B. […] See, FIG. 12B-12D. […] See, FIG. 18.
For the PARP-1 inhibition experiments, 300,000 HPS1 patient-derived B-LCL cells were treated with 10 μM or 20 μM rucaparib camsylate (Sigma-Aldrich PZ0036) in standard growth medium for 24 h. Treated cells were electroporated with SpyCas9 RNPs following previously described protocol. Following another 24 h incubation in rucaparib-containing medium, cells were resuspended in PARP-1 inhibitor-free medium and harvested for analysis after 7 days.
The construction of the UMI-based library used a linear amplification step to incorporate UMIs within the amplicons from the target locus^15. HPS1 B-LCL cells and HEK293 Ts were harvested following nuclease treatment for genomic DNA extraction using the GenElute Mammalian Genomic DNA Miniprep Kit (Sigma GIN350).
The analysis of the UMI-tagged deep sequencing reads was adapted from a previous protocol^15. Initially, BWA (version 0.7.5) and SAMtools (version 0.1.19) were used to align each group of filtered merged-read pairs to a corresponding reference sequence, ignoring the unique molecular barcodes. Next, a custom Python and PySAM script was used to process mapped reads into counts of UMI-labelled reads for each target. The mapped reads were filtered by requiring a mapping value (MAPQ) larger than 30. […]

Chain of PARP-1 (P09874 whole entry): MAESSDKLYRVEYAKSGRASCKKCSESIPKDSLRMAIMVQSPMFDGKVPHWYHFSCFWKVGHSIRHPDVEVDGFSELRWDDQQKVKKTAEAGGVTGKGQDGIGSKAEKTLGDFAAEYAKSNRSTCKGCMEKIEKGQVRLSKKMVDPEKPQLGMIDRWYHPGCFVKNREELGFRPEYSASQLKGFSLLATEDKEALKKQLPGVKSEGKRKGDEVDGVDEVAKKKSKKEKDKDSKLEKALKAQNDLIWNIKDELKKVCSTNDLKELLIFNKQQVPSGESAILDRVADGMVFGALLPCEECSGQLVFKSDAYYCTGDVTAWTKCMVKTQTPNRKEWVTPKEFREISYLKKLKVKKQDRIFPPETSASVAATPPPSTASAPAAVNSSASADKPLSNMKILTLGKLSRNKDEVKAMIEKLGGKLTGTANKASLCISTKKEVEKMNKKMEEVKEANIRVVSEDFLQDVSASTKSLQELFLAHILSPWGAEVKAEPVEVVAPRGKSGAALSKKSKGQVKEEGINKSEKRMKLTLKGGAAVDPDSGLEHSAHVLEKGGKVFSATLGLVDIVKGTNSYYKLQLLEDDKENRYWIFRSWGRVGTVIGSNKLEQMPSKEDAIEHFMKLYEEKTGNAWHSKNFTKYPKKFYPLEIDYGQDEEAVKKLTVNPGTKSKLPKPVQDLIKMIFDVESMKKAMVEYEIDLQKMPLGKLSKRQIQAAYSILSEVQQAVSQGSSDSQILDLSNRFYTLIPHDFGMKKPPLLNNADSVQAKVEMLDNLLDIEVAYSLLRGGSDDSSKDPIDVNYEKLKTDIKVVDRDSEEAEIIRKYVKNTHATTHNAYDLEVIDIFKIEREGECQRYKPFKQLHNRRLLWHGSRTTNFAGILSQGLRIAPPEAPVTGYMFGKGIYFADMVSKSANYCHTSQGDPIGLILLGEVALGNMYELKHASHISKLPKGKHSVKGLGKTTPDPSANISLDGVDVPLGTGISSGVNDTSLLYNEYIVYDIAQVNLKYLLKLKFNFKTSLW

Turning to `CNCc1ccc(-c2[nH]c3cc(F)cc4c3c2CCNC4=O)cc1` [rucaparib, rucaparib camsylate], the 16-bp deletion product entry is given as “around 15%” (10 μM rucaparib 24 h before and after SpyCas9 RNP); ~6% (20 μM rucaparib 24 h before and after SpyCas9 RNP). Further, the “editing rates at the HPS1 locus upon rucaparib treatment” value (10 or 20 μM rucaparib) is listed as “overall reduction in editing rates”.
